The target in test [1] is Fibrinogen binding to human thrombocytes. In words: Fibrinogen binding to human thrombocytes. The following applies: 125I fibrinogen; gel-filtered human platelets; ADP; 20 minutes at ambient temperature; read-out: Fibrinogen binding test IC50. The procedure: Fibrinogen binding to human thrombocytes The blood obtained by puncturing an antecubital vein is anticoagulated with trisodium citrate (final concentration: 13 mM) and centrifuged for 10 minutes at 170 xg. The supernatant platelet-rich plasma is poured onto a Sepharose 2B column (Pharmacia) and eluted with a solution of 90 mM common salt, 14 mM trisodium citrate, 5 mM glucose and 50 mM Tris(hydroxymethyl)aminomethane, adjusted to pH 7.4. The gel-filtered platelets (GFP) appearing before the plasma proteins are used for the binding experiments. 50 μl of a 60 mM calcium chloride solution, 50 μl of a 0.6 mM adenosine diphosphate solution, 100 μl of substance solution or solvent and 50 μl of fibrinogen solution (containing 3 μg of ^125 I fibrinogen) are added to 750 μl of GFP and incubated for 20 minutes at ambient temperature. The non-specific binding is determined in the presence of 3 mg/ml of cold fibrinogen. 900 μl of the incubated material are carefully pipetted onto 250 μl of silicon oil (AP 38: AR 20, 1:2 v/v, Wacker Chemie) in Eppendorf tubes and centrifuged for 2 minutes at 10,000 xg. The aqueous supernatant and some of the oil are drawn off, the tips of the tubes are cut off together with the platelet pellet and the quantity of bound fibrinogen is determined in a gamma counter. The concentration of substance which brings about a 50% inhibition in fibrinogen binding is determined from a series of concentrations and is given as the IC50 value.

Test [2] concerns thrombocyte (platelet) aggregation. In words: Antithrombotic activity: collagen-induced thrombocyte aggregation in platelet rich plasma (Born and Cross). Type of test: cell-based. The following applies: Homo sapiens, platelet rich plasma from healthy test subjects, 10 minutes at 37° C. preincubation, 50% change in optical density, read-out: Inhibition of platelet aggregation EC50. The procedure: 2. Antithrombotic activity Method: Thrombocyte aggregation is measured in platelet rich plasma from healthy test subjects using the Born and Cross method (J. Physiol. 170, 397 (1964)). In order to inhibit coagulation the blood is mixed with sodium citrate 3.14% in a ratio by volume of 1:10. Collagen-induced aggregation: The course of the decrease in optical density of the platelet suspension is photometrically measured and recorded after the addition of the substance which triggers aggregation. The rate of aggregation is deduced from the gradient angle of the density curve. The point on the curve where there is maximum transmittance is used to calculate the optical density. The quantity of collagen used is as little as possible but sufficient to give an irreversible reaction curve. Standard commercial collagen produced by Hormonchemie of Munich is used. Before the addition of the collagen the plasma is incubated for 10 minutes at 37° C. with the substance. From the measurements obtained, an EC50 is determined graphically, relating to a 50% change in optical density in terms of the inhibition of aggregation.

Where a name gives a salt, the structure may show the parent alone. Bounds are passed on as bounds.

For orientation: IC50 means the concentration that gives 50% inhibition. Broadly, the EC50 is the midpoint of the concentration-response curve. Regarding `COC(=O)CC1CCN(C(=O)c2ccc(-c3ccc(C(=N)N)cc3)cc2)CC1` [6(50), 4-amidino-4'-[(4-methoxycarbonylmethylpiperidino)-carbonyl]biphenyl hydrochloride], the IC50 in test [1] worked out at 0.34 µM. Moreover, in test [2], the concentration giving a half-maximal response (EC50) came out at 0.89 µM.

Turning to `N=C(N)c1ccc(-c2ccc(C(=O)NCCCCC(=O)O)cc2)cc1` [1(65), 4-amidino-4'-[(4-carboxybutyl)aminocarbonyl]-biphenyl hydrochloride], the IC50 in test [1] came to 0.22 µM. Moreover, the EC50 in test [2] turned out to be 2.4 µM.

For the compound `COC(=O)C1CCN(C(=O)c2ccc(-c3ccc(C(=N)N)cc3)cc2)CC1` [6(81), 4-amidino-4'-[(4-methoxycarbonylpiperidino)-carbonyl]biphenyl], in test [1], the IC50 turned out to be 25 µM. Further, the EC50 in test [2] is 34 µM.

With `COC(=O)CN1CCN(C(=O)c2ccc(-c3ccc(C(=N)N)cc3)cc2)CC1` [6(74), 4-amidino-4'-[(4-methoxycarbonylmethylpiperazino)-carbonyl]biphenyl dihydrochloride], the half-maximal inhibitory concentration (IC50) in test [1] worked out at 24 µM. Moreover, the EC50 in test [2] came out at 3.2 µM.

`N=C(N)c1ccc(-c2ccc(OCCCCCC(=O)O)cc2)cc1` [Example 2, 4-Amidino-4'-(5-carboxypentyloxy)biphenyl hydrochloride]: the IC50 in test [1] came to 0.21 µM. For the same compound, the EC50 in test [2] turned out to be 10 µM.

For the compound `COC(=O)CCCC(=O)Nc1ccc(-c2ccc(C(=N)N)cc2)cc1` [6(1), 4-amidino-4'-(4-methoxycarbonylbutyrylamino)-biphenyl hydrochloride], the IC50 in test [1] was found to be 5.6 µM. The concentration for a half-maximal effect (EC50) in test [2] is 3.7 µM.

`N=C(N)c1ccc(-c2ccc(OCC(=O)N3CCC(C(=O)O)CC3)cc2)cc1` [1(6), 4-amidino-4'-[[(4-carboxypiperidino)carbonyl]-methyloxy]biphenyl]: the half-maximal inhibitory concentration (IC50) in test [1] is 0.33 µM. Moreover, in test [2], the EC50 is 1.2 µM.

Take `COC(=O)CC1CCCN(C(=O)Cc2ccc(-c3ccc(C(=N)N)cc3)cc2)C1` (stereo not drawn) [6(58), 4-amidino-4'-[(3-methoxycarbonylmethylpiperidino)-carbonylmethyl]biphenyl hydrochloride]: the IC50 in test [1] was 34 µM. Moreover, in test [2], the EC50 is 23 µM.

For `N=C(N)c1ccc(-c2ccc(CC(=O)N3CCCC(CC(=O)O)C3)cc2)cc1` (stereo not drawn) [1(47), 4-amidino-4'-[(3-carboxymethylpiperidino)-carbonylmethyl]biphenyl hydrochloride], the IC50 in test [1] was determined as 0.47 µM. Besides, in test [2], the EC50 turned out to be 2.7 µM.

Consider `COC(=O)CCc1cccc(NC(=O)Cc2ccc(-c3ccc(C(=N)N)cc3)cc2)c1` [6(47), 4-amidino-4'-[[[3-(2-methoxycarbonylethyl)phenyl]-aminocarbonyl]methyl]biphenyl hydrochloride], for which the IC50 in test [1] was determined as 4.9 µM. For the same compound, the EC50 in test [2] worked out at 42 µM.

Take `N=C(N)c1ccc(-c2ccc(C(=O)NCCCC(=O)O)cc2)cc1` [1(2), 4-amidino-4'-[(3-carboxypropyl)aminocarbonyl]-biphenyl]: the IC50 in test [1] amounted to 0.12 µM. Also, the EC50 in test [2] amounted to 7 µM.

Consider `N=C(N)c1ccc(-c2ccc(C(=O)NCC(N)=O)cc2)cc1` [6(86), 4-amidino-4'-(aminocarbonylmethylaminocarbonyl)-biphenyl hydrochloride], for which the half-inhibitory concentration (IC50) in test [1] turned out to be 5.7 µM. The EC50 in test [2] was determined as 21 µM.

`CN(C(=O)c1ccc(-c2ccc(C(=N)N)cc2)cc1)C1CCC(C(=O)O)CC1` (stereo not drawn) [1(94), 4-amidino-4'-[N-(4-carboxycyclohexyl)-N-methyl-aminocarbonyl]biphenyl]: the EC50 in test [2] worked out at 0.04 µM.

As to `N=C(N)c1ccc(-c2ccc(CC(=O)N3CCC(C(=O)O)CC3)cc2)cc1` [1(45), 4-amidino-4'-[(4-carboxypiperidino)-carbonylmethyl]biphenyl hydrochloride], the IC50 in test [1] is 0.22 µM. Further, the half-maximal effective concentration (EC50) in test [2] was determined as 2 µM.

Turning to `COC(=O)C1CCC(NC(=O)c2ccc(-c3ccc(C(=N)N)cc3)cc2)CC1` (stereo not drawn) [6(87), 4-amidino-4'-[(4-methoxycarbonylcyclohexyl)-aminocarbonyl]biphenyl hydrochloride], the IC50 in test [1] came out at 3.8 µM. For the same compound, the EC50 in test [2] turned out to be 0.06 µM.

For the compound `N=C(N)c1ccc(-c2ccc(C(=O)N3CCN(CCC(=O)O)CC3)cc2)cc1` [1(68), 4-amidino-4'-[[4-(2-carboxyethyl)piperazino]-carbonyl]biphenyl dihydrochloride], the IC50 in test [1] is 0.56 µM. Moreover, the EC50 in test [2] worked out at 3.4 µM.

For the compound `N=C(N)c1ccc(-c2ccc(C(=O)N3CCCC(CC(=O)O)C3)cc2)cc1` (stereo not drawn) [1(41), 4-amidino-4'-[(3-carboxymethylpiperidino)-carbonyl]biphenyl hydrochloride], in test [1], the IC50 came out at 0.52 µM. Further, the EC50 in test [2] was 2.6 µM.

Regarding `N=C(N)c1ccc(-c2ccc(OCCCCC(=O)O)cc2)cc1` [2(2), 4-amidino-4'-(4-carboxybutyloxy)biphenyl], in test [1], the 50% inhibitory concentration (IC50) amounted to 0.046 µM. Also, the EC50 in test [2] worked out at 45 µM.

Regarding `N=C(N)c1ccc(-c2ccc(C(=O)NC3CCC(C(=O)O)CC3)cc2)cc1` (stereo not drawn) [1(80), 4-amidino-4'-[(4-carboxycyclohexyl)aminocarbonyl]-biphenyl hydrochloride], the IC50 in test [1] came to 0.031 µM. The EC50 in test [2] worked out at 0.04 µM.

Regarding `NCc1ccc(-c2ccc(C(=O)N3CCC(CC(=O)O)CC3)cc2)cc1` [10(1), 4-aminomethyl-4'-[(4-carboxymethylpiperidino)-carbonyl]biphenyl hydrochloride], the IC50 in test [1] turned out to be 0.8 µM. For the same compound, the EC50 in test [2] was determined as 1.8 µM.

For the compound `COC(=O)C1CCN(C(=O)COc2ccc(-c3ccc(C(=N)N)cc3)cc2)CC1` [6(48), 4-amidino-4'-[[(4-methoxycarbonylpiperidino)-carbonyl]methyloxy]biphenyl hydrochloride], the 50% inhibitory concentration (IC50) in test [1] stood at 25 µM. Besides, the concentration for a half-maximal effect (EC50) in test [2] is 0.59 µM.

For `COC(=O)Cc1cccc(NC(=O)Cc2ccc(-c3ccc(C(=N)N)cc3)cc2)c1` [6(46), 4-amidino-4'-[[[3-(methoxycarbonylmethyl)phenyl]-aminocarbonyl]methyl]biphenyl hydrochloride], in test [1], the IC50 turned out to be 19 µM. Also, the EC50 in test [2] is 82 µM.

For `COC(=O)CCCCNC(=O)c1ccc(-c2ccc(C(=N)N)cc2)cc1` [6(72), 4-amidino-4'-[(4-methoxycarbonylbutyl)amino-carbonyl]biphenyl hydrochloride], the IC50 in test [1] amounted to 7.4 µM. In test [2], the EC50 was determined as 3.4 µM.

For the compound `N=C(N)c1ccc(-c2ccc(OCC(=O)NCC(=O)O)cc2)cc1` [1(3), 4-amidino-4'-[[(carboxymethylamino)carbonyl]-methoxy]-biphenyl], the IC50 in test [1] amounted to 1.8 µM. For the same compound, in test [2], the EC50 amounted to 13 µM.

Take `N=C(N)c1ccc(-c2ccc(CC(=O)NCCC(=O)O)cc2)cc1` [Example 1, 4-Amidino-4'-[[(2-carboxyethyl)aminocarbonyl]methyl]-biphenyl]: in test [1], the IC50 is 0.29 µM. Further, the EC50 in test [2] was determined as 1.1 µM.

As to `N=C(N)c1ccc(-c2ccc(C(=O)N3CCN(CC(=O)O)CC3)cc2)cc1` [1(67), 4-amidino-4'-[(4-carboxymethylpiperazino)-carbonyl]biphenyl hydrochloride], the IC50 in test [1] is 0.18 µM. Moreover, in test [2], the EC50 stood at 0.35 µM.

For the compound `N=C(N)c1ccc(-c2ccc(OCC(=O)N3CCCC(C(=O)O)C3)cc2)cc1` (stereo not drawn) [1(7), 4-amidino-4'-[[(3-carboxypiperidino)carbonyl]-methyloxy]biphenyl], in test [1], the IC50 worked out at 1.9 µM. Moreover, the EC50 in test [2] is 3.8 µM.

Regarding `COc1ccc(CCNC(=O)C(CC(=O)O)NC(=O)CNC(=O)c2ccc(-c3ccc(C(=N)N)cc3)cc2)cc1` (stereo not drawn) [Example 3, 4-Amidino-4'-[[[2-carboxy-1-[[2-(4-methoxyphenyl)-ethyl]aminocarbonyl]ethylamino]carbonylmethyl]-aminocarbonyl]biphenyl hydrochloride], the IC50 in test [1] worked out at 1.3 µM. The EC50 in test [2] was found to be 16 µM.

Turning to `COC(=O)C1CCC(N(C)C(=O)c2ccc(-c3ccc(C(=N)N)cc3)cc2)CC1` (stereo not drawn) [6(98), 4-amidino-4'-[N-(4-methoxycarbonylcyclohexyl)-N-methylaminocarbonyl]biphenyl hydrochloride], the EC50 in test [2] was determined as 0.37 µM.

As for `CCOC(=O)CC1CCN(C(=O)c2ccc(-c3ccc(C(=N)NC(=O)OCC)cc3)cc2)CC1` [8(7), 4-(N-ethoxycarbonylamidino)-4'-[(4-ethoxycarbonyl-methylpiperidino)carbonyl]biphenyl], the EC50 in test [2] was greater than 10 µM.

(Values after patent US5736559A, “Biphenyl derivatives, pharmaceutical compositions containing these compounds and processes for preparing them” (Karl Thomae GmbH, priority 1991, dated 1998).)
